From publication PMC7037682, “Herb–Drug Interaction of Red Ginseng Extract and Ginsenoside Rc with Valsartan in Rats” (Molecules, 2020)
Blank lines part the entries; values can stand above or below the compound they belong to.

Columns and labels:
UGT1A9 = conditions: cited from earlier work
[1] = Plasma pharmacokinetics of ginsenosides in rats after 1-week repeated RGE; conditions: LC-MS/MS, after RGE 1.5 g/kg/day po for 1 week
Description: The rats were randomly divided into the control and RGE groups. The RGE group received a RGE suspension (1.5 g/mL/kg/day, in distilled water) for 7 days via oral gavage. The control group received distilled water for 7 days via oral gavage. After 1 h following the last RGE treatment, valsartan was injected intravenously to both groups via the tail vein at 1 mg/mL/kg (dissolved in DMSO: saline = 2:8, v/v). […] After centrifugation of the blood samples at 16,000× g for 10 min, aliquots (50 μL each) of plasma samples were stored at −80 °C until the analysis of ginsenosides and valsartan.
The residue was reconstituted with 100 μL of 70% methanol consisting of 0.1% formic acid. An aliquot (20 μL) from the sample was injected into the LC-MS/MS system.
After freezing the aqueous layer at −80 °C for 2 h, the upper organic layer was transferred to a clean tube and evaporated to dryness. […] An aliquot (20 μL) from the sample was injected into the LC-MS/MS system. The samples were eluted through an Omega Polar C18 column (2.1 mm × 100 mm, 3 µm particle size) (Phenomenex, Torrance, CA, USA) using a mobile phase consisting of 0.1% formic acid in water: 0.1% formic acid in methanol (15:85, v/v) at a flow rate of 0.2 mL/min.
Pharmacokinetic parameters were calculated from plasma concentration-time profile using non-compartment analysis of WinNonlin (version 5.1; Pharsights, Cary, NC, USA). The statistical significance was assessed by t-test using Statistical Package for the Social Sciences (version 24.0; SPSS Inc., Chicago, IL, USA).

[2] = Pharmacokinetics of iv valsartan in rats with or without repeated iv Rc; format: in vivo; conditions: rat, plasma, 1 mg/kg, valsartan 1 mg/kg iv; for AUC(0-t): read-out: AUC24h
Description: The rats were randomly divided into the control and Rc groups. The Rc group was injected with Rc solution (3 mg/mL/kg, dissolved in saline) intravenously via the tail vein for 5 consecutive days. The control group received saline (1 mL/kg) for 5 consecutive days via the tail vein. […] Quantification was performed in the selected reaction-monitoring mode at m/z 436.1 → 291.0 for valsartan and m/z 336.1 → 320.0 for berberine. […] The intraday and interday precision ranged from 1.80% to 9.23%.

in vivo [3] = conditions: rat, iv, 1 mg/kg
Description: The rats were randomly divided into the control and rifampin groups. […] Quantification was performed in the selected reaction-monitoring mode at m/z 436.1 → 291.0 for valsartan and m/z 336.1 → 320.0 for berberine. […] The intraday and interday precision ranged from 1.80% to 9.23%.

in vivo [4] = conditions: rat, iv, 1 mg/kg; remark: listed apart in the source
Description: Quantification was performed in the selected reaction-monitoring mode at m/z 436.1 → 291.0 for valsartan and m/z 336.1 → 320.0 for berberine. […] The intraday and interday precision ranged from 1.80% to 9.23%.

OATP1B1 and OATP1B3 = conditions: human ref 29, 30; cited from earlier work
OATP1B1 = target: T1, OATP1B1 (Homo sapiens, UniProt Q9Y6L6); test: Valsartan uptake by HEK293-OATP1B1 cells versus mock cells; format: cell-based; parameters: host or cells: HEK293; conditions: 5 μM valsartan
T1 sequence (Q9Y6L6 1-691): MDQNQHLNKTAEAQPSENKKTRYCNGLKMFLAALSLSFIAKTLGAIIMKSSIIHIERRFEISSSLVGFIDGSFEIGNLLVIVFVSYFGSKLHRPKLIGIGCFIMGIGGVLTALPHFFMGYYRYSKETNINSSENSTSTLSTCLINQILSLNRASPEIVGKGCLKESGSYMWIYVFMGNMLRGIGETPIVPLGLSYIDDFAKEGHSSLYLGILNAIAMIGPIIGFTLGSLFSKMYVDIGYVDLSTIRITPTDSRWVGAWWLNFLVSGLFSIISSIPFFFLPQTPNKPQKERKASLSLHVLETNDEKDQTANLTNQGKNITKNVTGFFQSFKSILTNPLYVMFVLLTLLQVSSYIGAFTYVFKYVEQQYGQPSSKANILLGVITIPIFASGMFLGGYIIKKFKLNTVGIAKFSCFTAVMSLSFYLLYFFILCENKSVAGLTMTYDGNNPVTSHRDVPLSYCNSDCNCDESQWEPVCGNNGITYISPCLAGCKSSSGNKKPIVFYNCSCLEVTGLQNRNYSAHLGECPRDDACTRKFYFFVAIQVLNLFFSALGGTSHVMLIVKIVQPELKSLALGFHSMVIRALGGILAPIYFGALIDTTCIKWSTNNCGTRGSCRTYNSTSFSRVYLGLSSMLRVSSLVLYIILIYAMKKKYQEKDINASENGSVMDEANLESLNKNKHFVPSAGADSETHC
Description: (§1) The uptake of valsartan 5 (μM)was measured for 5 min immediately after adding aliquots (100 μL) of HBSS containing 5 μM valsartan in the presence or absence of rifampin (1–100 μM) or tri-glycosylated PPD-type ginsenosides (Rb1, Rb2, and Rc; 0.1–100 μM) to the HEK293-mock cells and HEK293-OATP1B1 and –OAPT1B3 cells after aspirating pre-incubated HBSS. […] After the centrifugation of cell lysate samples (16,000× g, 5 min, 4 °C), aliquots (4 μL) of cell lysate samples were injected into LC-MS/MS system for the analysis of valsartan. Transporter mediated uptake of probe substrates or valsartan was calculated by subtracting the uptake rate of probe substrates or valsartan into HEK293-mock cells from that into HEK293 cells expressing respective transporters.

OATP1B3 = target: T2, OATP1B3 (Homo sapiens, UniProt Q9NPD5); test: Valsartan uptake by HEK293-OATP1B3 cells versus mock cells; format: cell-based; parameters: host or cells: HEK293; conditions: 5 μM valsartan
T2 sequence (Q9NPD5 1-702): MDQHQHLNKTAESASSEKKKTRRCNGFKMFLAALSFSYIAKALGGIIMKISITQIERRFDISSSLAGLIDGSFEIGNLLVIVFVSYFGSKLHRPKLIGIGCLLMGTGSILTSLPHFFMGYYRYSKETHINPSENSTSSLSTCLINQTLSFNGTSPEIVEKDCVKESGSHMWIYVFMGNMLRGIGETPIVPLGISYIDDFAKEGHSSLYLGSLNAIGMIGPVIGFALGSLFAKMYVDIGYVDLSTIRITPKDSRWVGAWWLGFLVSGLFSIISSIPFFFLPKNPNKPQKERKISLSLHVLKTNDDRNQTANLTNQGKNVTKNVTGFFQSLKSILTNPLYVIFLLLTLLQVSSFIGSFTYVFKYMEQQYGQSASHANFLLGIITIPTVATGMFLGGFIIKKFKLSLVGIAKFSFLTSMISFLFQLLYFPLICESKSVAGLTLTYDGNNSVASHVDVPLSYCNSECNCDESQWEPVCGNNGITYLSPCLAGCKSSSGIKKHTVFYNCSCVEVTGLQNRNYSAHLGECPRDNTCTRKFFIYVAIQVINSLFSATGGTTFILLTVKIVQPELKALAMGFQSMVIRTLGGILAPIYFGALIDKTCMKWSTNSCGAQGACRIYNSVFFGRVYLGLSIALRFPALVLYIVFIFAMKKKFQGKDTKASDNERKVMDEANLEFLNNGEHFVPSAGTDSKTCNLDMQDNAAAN
Description: as §1

Oatps = conditions: rats ref 29, 30; cited from earlier work
[5] = after Rc 3 mg/kg/day iv for 5 days

Compound: CC(C)=CCC[C@](C)(O)[C@H]1CC[C@]2(C)[C@@H]1[C@H](O)C[C@@H]1[C@@]3(C)CC[C@H](O)C(C)(C)[C@@H]3[C@@H](O[C@@H]3O[C@H](CO)[C@@H](O)[C@H](O)[C@H]3O[C@@H]3O[C@H](CO)[C@@H](O)[C@H](O)[C@H]3O)C[C@]12C [Rf]
- IC50 UGT1A9 (UGT1A9): did not inhibit

- detection in rat plasma [1]: not detected
Compound: CC(C)=CCC[C@](C)(O[C@@H]1O[C@H](CO)[C@@H](O)[C@H](O)[C@H]1O)[C@H]1CC[C@]2(C)[C@@H]1[C@H](O)C[C@@H]1[C@@]3(C)CC[C@H](O)C(C)(C)[C@@H]3[C@@H](O)C[C@]12C [F1]
- IC50 UGT1A9 (UGT1A9): did not inhibit

- detection in rat plasma [1]: not detected
Compound: CC(C)=CCC[C@](C)(O[C@@H]1O[C@H](CO)[C@@H](O)[C@H](O)[C@H]1O)[C@H]1CC[C@]2(C)[C@@H]1[C@H](O)C[C@@H]1[C@@]3(C)CC[C@H](O[C@@H]4O[C@H](CO)[C@@H](O)[C@H](O)[C@H]4O)C(C)(C)[C@@H]3CC[C@]12C [F2]

- AUC(0-inf) [2, 5]: 836 ± 112 ng·h/mL
- C0 [2, 5]: 1450 ± 998 ng/mL
- MRT [2, 5]: 2.94 ± 1.52 h
- Vd [2, 5]: 3.46 ± 1.64 L/kg
- clearance [2, 5]: 20.2 ± 2.86 mL/min/kg
- half-life [2, 5]: 3.3 ± 1.51 h
- AUC(0-t) [2, 5]: 809 ± 112 ng·h/mL
- AUC(0-inf) ([2]; control group of Rc study): 657 ± 84.9 ng·h/mL
- C0 ([2]; control group of Rc study): 401 ± 77.8 ng/mL
- MRT ([2]; control group of Rc study): 2.27 ± 0.67 h
- Vd ([2]; control group of Rc study): 3.43 ± 0.794 L/kg
- clearance ([2]; control group of Rc study): 25.7 ± 3.5 mL/min/kg
- half-life ([2]; control group of Rc study): 2.41 ± 1.3 h
- AUC(0-t) ([2]; control group of Rc study): 639 ± 80.7 ng·h/mL
- C0 (in vivo [3]): 1633.08 ± 1308.67 ng/mL
- MRT (in vivo [3]): 3.37 ± 0.83 h
- T1/2 (in vivo [3]): 2.79 ± 0.32 h
- Vd (in vivo [3]): 0.05503 ± 0.02629 L/kg
- C0 (in vivo [3]; C0): 1170 ± 119 ng/mL
- clearance (in vivo [3]; CL): 26 ± 6.3 mL/min/kg
- MRT (in vivo [3]; MRT): 2.99 ± 0.47 h
- half-life (in vivo [3]; T1/2): 4.48 ± 1.24 h
- Vd (in vivo [3]; Vd): 4.7 ± 1.54 L/kg
- AUC24h (in vivo [4]): 776.59 ± 228.82 ng·h/mL
- C0 (in vivo [4]): 781.47 ± 211.04 ng/mL
- MRT (in vivo [4]): 3.81 ± 0.05 h
- T1/2 (in vivo [4]): 4.59 ± 0.73 h
- Vd (in vivo [4]): 0.08538 ± 0.02582 L/kg
- AUC(0-t) (in vivo [4]; AUC24h): 859 ± 234 ng·h/mL
- AUC(0-inf) (in vivo [4]; AUC∞): 882 ± 247 ng·h/mL
- C0 (in vivo [4]; C0): 648 ± 50.5 ng/mL
- clearance (in vivo [4]; CL): 20 ± 5.48 mL/min/kg
- MRT (in vivo [4]; MRT): 3.76 ± 1.16 h
- half-life (in vivo [4]; T1/2): 4.55 ± 0.98 h
- Vd (in vivo [4]; Vd): 4.33 ± 0.922 L/kg
- Valsartan uptake increase, HEK293-OATP1B1 vs HEK293-mock (OATP1B1): 19.8 fold
- Valsartan uptake increase, HEK293-OATP1B3 vs HEK293-mock (OATP1B3): 26.1 fold
Compound: CCCCC(=O)N(Cc1ccc(-c2ccccc2-c2nnn[nH]2)cc1)[C@H](C(=O)O)C(C)C [Valsartan, valsartan]
- contribution of Oatp transporters in the hepato-biliary excretion (OATP1B1 and OATP1B3): 70–85%
- contribution of Oatp transporters in the hepato-biliary excretion (Oatps): 70–85%
